From patent US20100267796A1, “THERAPEUTIC AGENT FOR IRRITABLE BOWEL SYNDROME” (KYOWA HAKKO KOGYO CO., LTD., priority 2006, published 2010)

What was measured:
[1] = test system: restraint stress-induced defecation; assay: Action on restraint stress-induced defecation; assay type: in vivo, male Wistar rats; conditions: measured 1 hour after stress initiation, rats
Procedure: An experiment was carried out according to the method of Kishibayashi et al. [Japanese Journal of Pharmacology, Vol. 69, No. 4, pp. 495-502 (1993)]. In the experiment, male Wistar rats aged 6 to 7 weeks (supplied from Charles River Laboratories Japan, Inc.) were used. […] The rats were lightly anesthetized with diethyl ether, and the thoracic trunk and the forelimbs were wrapped with a tape to produce mild stress. One hour after stress initiation, the wet weight of fecal pellets was measured. Each drug solution was orally administered 1 hour before restraint stress. A test compound was suspended at a concentration of 2 mg/mL in an aqueous solution of 0.5 w/v % methyl cellulose 400 cP and orally administered at a volume of 5 mL/kg (at a dose of 10 mg/kg). In a control, an aqueous solution of 0.5 w/v % methyl cellulose 400 cP was administered. Ten rats were used in each group. […] YM060, a serotonin 5-HT3 receptor antagonist [The Journal of Pharmacology and Experimental Therapeutics, Vol. 259, No. 2, pp. 815-819 (1991), Astellas Pharma. Inc., online, internet (URL: […].com/jp/companry/news/2006/pdf/060131.pdf)], which is being applied as a therapeutic agent for irritable bowel syndrome, was administered at a dose of 0.1 mg/kg.

[2] = test system: adenosine uptake in HEK293 cells; assay: Adenosine uptake inhibitory activity in HEK293 cells ([3H]adenosine uptake); assay type: cell-based; conditions: for activity at 0.05 µM: 50 nmol/L compound, n=2; for activity at 0.5 µM: 500 nmol/L compound
Procedure: A test was conducted according to the method of Leung et al. [Biochemical Pharmacology, Vol. 70, pp. 355-362 (2005)]. HEK293 cells (ATCC, Registration No. CRL-1537) were subcultured in a Dulbecco's modified Eagle's medium (manufactured by Invitrogen Corporation) containing 10% of fatal calf serum in a CO2 incubator using a poly-L-lysine-coated 10-cm dish (manufactured by Asahi Techno Glass Corporation). The cultured cells were seeded in a poly-L-lysine-coated 24-well plate (manufactured by Asahi Techno Glass Corporation) and cultured until the cells become confluent. […] After incubation at room temperature for 15 minutes, 0.2 mL of a Na^+-free buffer containing 100 nmol/L of [^3H] adenosine (manufactured by GE Health Care Bioscience Corporation) and each compound at each of 50 nmol/L and 500 nmol/L was added to each well. After 1 minute, the reaction solution was removed with an aspirator, and the wells were washed twice with 0.5 mL of ice-cooled PBS (phosphate-buffered saline). Then, 0.5 mL of PBS containing 5% Triton X-100 was added to each well, and the cells were scraped with a scraper. The solution in each well was homogenized by passing through a 20 G injection needle ten times and transferred to a scintillation vial containing 4 mL of clear sol (manufactured by Nacalai Tesque Inc.). Further, the wells were washed with 0.5 mL of PBS containing 5% Triton X-100, and the washing solution was added to the same vial. After sufficient agitation, radioactivity was measured using a liquid scintillation counter (Aloka Co., Ltd., LSC-3500). A relative value to 100% of an uptake of a control was indicated by percentage.

[3] = 300 mg/kg p.o. 1 hour before restraint stress
[4] = Homo sapiens, 1 min, [3H]adenosine uptake relative to 100% of control, HEK293 cells
[5] = 10 mg/kg p.o. 1 hour before restraint stress, n=10, control of each sub-table 1.06-1.71 g

COc1cc(C(=O)OCCCN2CCCN(CCCOC(=O)c3cc(OC)c(OC)c(OC)c3)CC2)cc(OC)c1OC [Dilazep, reference compound]
Wet weight of fecal pellets [1, 3]: 0.84 ± 0.17 g

CCOC(=O)CNc1cccc2c1C(=O)c1sccc1CS2(=O)=O [Compound 5-5, 5,5-Dioxo-9-ethoxycarbonylmethylamino-4,10-dihydrothieno[3,2-c][1]benzothiepin-10-one]
activity at 0.05 µM [2, 4]: 98%
activity at 0.5 µM [2, 4]: 68%

Cc1cc(C(=O)Nc2cccc3c2C(=O)c2sccc2CS3(=O)=O)[nH]n1 [Compound 1-9, 5,5-Dioxo-9-[(5-methylpyrazol-3-ylcarbonyl)amino]-4,10-dihydrothieno[3,2-c][1]benzothiepin-10-one]
activity at 0.05 µM [2, 4]: 62%
activity at 0.5 µM [2, 4]: 26%
Wet weight of fecal pellets [1, 5]: 0.39 ± 0.18 g

CCC(O)(CC)C(=O)Nc1cccc2c1C(=O)c1sccc1CS2(=O)=O [Compound 1-4, 5,5-Dioxo-9-(2-ethyl-2-hydroxybutanoylamino)-4,10-dihydrothieno[3,2-c][1]benzothiepin-10-one]
activity at 0.05 µM [2, 4]: 73%
activity at 0.5 µM [2, 4]: 34%
Wet weight of fecal pellets [1, 5]: 0.44 ± 0.19 g

CC(C)(C)C(=O)Nc1cccc2c1C(=O)c1sccc1CS2(=O)=O [Compound 1-5]
activity at 0.05 µM [2, 4]: 90%
activity at 0.5 µM [2, 4]: 55%
Wet weight of fecal pellets [1, 5]: 0.97 ± 0.16 g

Cc1ccc(NC(=O)C(C)(O)C(F)(F)F)c2c1S(=O)(=O)Cc1ccsc1C2=O (stereo not shown) [Compound 3-4]
activity at 0.05 µM [2, 4]: 71%
activity at 0.5 µM [2, 4]: 41%
Wet weight of fecal pellets [1, 5]: 0.67 ± 0.19 g

O=C1c2sccc2CS(=O)(=O)c2cccc(Nc3ccccc3)c21 [Compound 5-1, 5,5-Dioxo-9-phenylamino-4,10-dihydrothieno[3,2-c][1]benzothiepin-10-one]
activity at 0.05 µM [2, 4]: 91%
activity at 0.5 µM [2, 4]: 60%
Wet weight of fecal pellets [1, 5]: 0.36 ± 0.16 g

CC(=O)C(C)(C)C(=O)Nc1cccc2c1C(=O)c1sccc1CS2(=O)=O [Compound 1-10, 5,5-Dioxo-9-(2,2-dimethyl-3-oxobutanoylamino)-4,0-dihydrothieno[3,2-c][1]benzothiepin-10-one]
activity at 0.05 µM [2, 4]: 94%
activity at 0.5 µM [2, 4]: 63%

COc1ccccc1CNc1cccc2c1C(=O)c1sccc1CS2(=O)=O [Compound 5-4, 5,5-Dioxo-9-(2-methoxybenzylamino)-4,10-dihydrothieno[3,2-c][1]benzothiepin-10-one]
activity at 0.05 µM [2, 4]: 72%
activity at 0.5 µM [2, 4]: 42%

CC(O)(C(=O)Nc1ccc(Br)c2c1C(=O)c1sccc1CS2(=O)=O)C(F)(F)F (stereo not shown) [Compound 3-3, 6-Bromo-5,5-dioxo-9-(3,3,3-trifluoro-2-hydroxy-2-methylpropanoylamino)-4,10-dihydrothieno[3,2-c][1]benzothiepin-10-one]
Wet weight of fecal pellets [1, 5]: 0.81 ± 0.22 g

O=C(CC(O)(C(F)(F)F)C(F)(F)F)Nc1cccc2c1C(=O)c1sccc1CS2(=O)=O [Compound 1-2]
activity at 0.05 µM [2, 4]: 39%
activity at 0.5 µM [2, 4]: 17%
Wet weight of fecal pellets [1, 5]: 0.78 ± 0.25 g

COC(=O)C(CC(C)C)Nc1cccc2c1C(=O)c1sccc1CS2(=O)=O (stereo not shown) [Compound 5-7, 5,5-Dioxo-9-{[1-(methoxycarbonyl)-3-methylbutyl]amino}-4,10-dihydrothieno[3,2-c][1]benzothiepin-10-one]
activity at 0.05 µM [2, 4]: 67%
activity at 0.5 µM [2, 4]: 30%

O=C1c2sccc2CS(=O)(=O)c2cccc(NCc3ccccc3)c21 [Compound 5-3, 9-Benzylamino-5,5-dioxo-4,10-dihydrothieno[3,2-c][1]benzothiepin-10-one]
activity at 0.05 µM [2, 4]: 63%
activity at 0.5 µM [2, 4]: 30%
Wet weight of fecal pellets [1, 5]: 0.41 ± 0.17 g

O=C(Nc1cccc2c1C(=O)c1sccc1CS2(=O)=O)c1cc(Cl)ccc1O [Compound 1-7]
activity at 0.05 µM [2, 4]: 74%
activity at 0.5 µM [2, 4]: 35%
Wet weight of fecal pellets [1, 5]: 0.59 ± 0.12 g

Cn1cc(C(=O)[C@@H]2CCc3nc[nH]c3C2)c2ccccc21 [YM060, reference compound]
Wet weight of fecal pellets ([1]; 0.1 mg/kg 1 hour before restraint stress, control 1.24 ± 0.23 g): 0.43 ± 0.11 g

CC(O)(C(=O)Nc1ccc(F)c2c1C(=O)c1sccc1CS2(=O)=O)C(F)(F)F (stereo not shown) [Compound 3-1]
activity at 0.05 µM [2, 4]: 96%
activity at 0.5 µM [2, 4]: 63%
Wet weight of fecal pellets [1, 5]: 0.41 ± 0.16 g

COC(=O)C(Cc1ccccc1)Nc1cccc2c1C(=O)c1sccc1CS2(=O)=O (stereo not shown) [Compound 5-8, 5,5-Dioxo-9-{[1-(methoxycarbonyl)-2-phenylethyl]amino}-4,10-dihydrothieno[3,2-c][1]benzothiepin-10-one]
activity at 0.05 µM [2, 4]: 92%
activity at 0.5 µM [2, 4]: 69%

CCOC(=O)Nc1cccc2c1C(=O)c1sccc1CS2(=O)=O [Compound 1-6]
activity at 0.05 µM [2, 4]: 89%
activity at 0.5 µM [2, 4]: 68%
Wet weight of fecal pellets [1, 5]: 0.31 ± 0.06 g

O=C1c2sccc2CS(=O)(=O)c2cccc(NC(=O)C(O)C(F)(F)F)c21 (stereo not shown) [Compound 1-11, 5,5-Dioxo-9-(2-hydroxy-3,3,3-trifluoropropanoylamino)-4,10-dihydrothieno[3,2-c][1]benzothiepin-10-one]
activity at 0.05 µM [2, 4]: 82%
activity at 0.5 µM [2, 4]: 46%

O=C(Nc1cccc2c1C(=O)c1sccc1CS2(=O)=O)c1ccco1 [Compound 1-8]
activity at 0.05 µM [2, 4]: 79%
activity at 0.5 µM [2, 4]: 44%
Wet weight of fecal pellets [1, 5]: 0.66 ± 0.12 g

OCCN(CCO)c1nc(N2CCCCC2)c2nc(N(CCO)CCO)nc(N3CCCCC3)c2n1 [Dipyridamole, reference compound]
Wet weight of fecal pellets [1, 3]: 0.59 ± 0.15 g

CC(O)(C(=O)Nc1ccc(Cl)c2c1C(=O)c1sccc1CS2(=O)=O)C(F)(F)F (stereo not shown) [Compound 3-2]
Wet weight of fecal pellets [1, 5]: 0.53 ± 0.14 g

O=C1c2sccc2CS(=O)(=O)c2cccc(SCc3ccccc3)c21 [Compound 6-1, 9-Benzylthio-5,5-dioxo-4,10-dihydrothieno[3,2-c][1]benzothiepin-10-one]
activity at 0.05 µM [2, 4]: 75%
activity at 0.5 µM [2, 4]: 39%

NC(=O)C1CN(CCCCC(c2ccc(F)cc2)c2ccc(F)cc2)CCN1CC(=O)Nc1c(Cl)cc(N)cc1Cl (stereo not shown) [Draflazine, reference compound]
Wet weight of fecal pellets ([1]; 100 mg/kg p.o. 1 hour before restraint stress, control 1.06 ± 0.11 g): 0.43 ± 0.13 g

CCOC(=O)C(C)Nc1cccc2c1C(=O)c1sccc1CS2(=O)=O (stereo not shown) [Compound 5-6, 5,5-Dioxo-9-[1-(ethoxycarbonyl)ethylamino]-4,10-dihydrothieno[3,2-c][1]benzothiepin-10-one]
activity at 0.05 µM [2, 4]: 80%
activity at 0.5 µM [2, 4]: 50%

CCOc1cc2nc(N3CCOCC3)nc(N3CCC(n4c(=O)c5cc(C)ccc5n(C)c4=O)CC3)c2cc1OCC [KF24345, reference compound]
Wet weight of fecal pellets [1, 5]: 0.48 ± 0.14 g

O=C1c2sccc2CS(=O)(=O)c2cccc(Nc3cc(Cl)ccc3O)c21 [Compound 5-2, 9-(5-Chloro-2-hydroxyphenylamino)-5,5-dioxo-4,10-dihydrothieno[3,2-c][1]benzothiepin-10-one]
activity at 0.05 µM [2, 4]: 80%
activity at 0.5 µM [2, 4]: 44%
Wet weight of fecal pellets [1, 5]: 0.46 ± 0.18 g

O=C1c2sccc2CS(=O)(=O)c2cccc(OCc3ccccc3)c21 [Compound 6-2, 9-Benzyloxy-5,5-dioxo-4,10-dihydrothieno[3,2-c][1]benzothiepin-10-one]
activity at 0.05 µM [2, 4]: 94%
activity at 0.5 µM [2, 4]: 73%

O=[N+]([O-])c1ccc(CSc2ncnc3c2ncn3C2OC(CO)C(O)C2O)cc1 (stereo not shown) [Nitrobenzylthioinosine, S6-(4-nitrobenzyl)mercaptopurine riboside, reference compound]
adenosine uptake in HEK293 cells (in words) ([2]; 100 nmol/L, concentration at which only ENT-1 is inhibited): almost completely inhibited
activity at 0.1 µM ([2]; Homo sapiens, 1 min, 100 nmol/L compound, [3H]adenosine uptake relative to 100% of control, HEK293 cells): 8%
activity at 0.5 µM [2, 4]: 4%
